Results: US12122761B2, “2-azaspiro[3.4]octane derivatives as M4 agonists” (NOVARTIS AG, priority 2019, dated 2024)

Assays:
[1] = target: T1, human cloned CHRM2 receptor (M2_CHO cells) (Homo sapiens, UniProt P08172); assay: CHRM2 Ca++ Flux Assay (agonist mode, FDSS 7000EX); type: cell-based; details: for Emax: Percent Activity measured to EC100 of Carbachol, read-out: M2 FDSS PA; for EC50: agonist mode, geometric mean if tested more than once, read-out: M2 FDSS EC50
T1 construct: expressed in transfected cells; host or cells: CHO-K1
T1 sequence (P08172 1-466): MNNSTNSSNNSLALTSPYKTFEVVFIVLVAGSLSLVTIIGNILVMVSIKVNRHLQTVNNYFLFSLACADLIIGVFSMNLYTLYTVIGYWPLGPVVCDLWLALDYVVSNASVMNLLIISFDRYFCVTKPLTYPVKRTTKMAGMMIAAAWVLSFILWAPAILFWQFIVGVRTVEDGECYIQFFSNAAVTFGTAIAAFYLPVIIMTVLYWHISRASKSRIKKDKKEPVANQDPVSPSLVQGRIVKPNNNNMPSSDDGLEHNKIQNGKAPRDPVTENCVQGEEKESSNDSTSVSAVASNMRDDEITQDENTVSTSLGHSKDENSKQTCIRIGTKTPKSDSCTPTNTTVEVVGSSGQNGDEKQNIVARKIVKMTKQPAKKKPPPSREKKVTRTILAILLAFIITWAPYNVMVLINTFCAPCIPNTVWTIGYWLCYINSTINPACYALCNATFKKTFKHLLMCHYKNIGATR
How it was run: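 Response expressed as percent activity versus the Carbachol EC100, with curves fitted by four-parameter non-linear regression of triplicates. Stable M2_CHO cells were Ca++ dye-loaded and preincubated 60 min at room temperature in assay buffer containing 20 μM ATP; signal imaged for 3 minutes after compound.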

[2] = target: T2, human cloned CHRM5 receptor (M5_CHO) (Homo sapiens, UniProt P08912); assay: CHRM5 Ca++ Flux Assay (agonist mode, FDSS 7000EX); type: cell-based; details: for Emax: Percent Activity measured to EC100 of Carbachol, read-out: M5 FDSS PA; for EC50: agonist mode, geometric mean if tested more than once, read-out: M5 FDSS EC50
T2 construct: expressed in transfected cells; host or cells: CHO (M5_CHO)
T2 sequence (P08912 1-532): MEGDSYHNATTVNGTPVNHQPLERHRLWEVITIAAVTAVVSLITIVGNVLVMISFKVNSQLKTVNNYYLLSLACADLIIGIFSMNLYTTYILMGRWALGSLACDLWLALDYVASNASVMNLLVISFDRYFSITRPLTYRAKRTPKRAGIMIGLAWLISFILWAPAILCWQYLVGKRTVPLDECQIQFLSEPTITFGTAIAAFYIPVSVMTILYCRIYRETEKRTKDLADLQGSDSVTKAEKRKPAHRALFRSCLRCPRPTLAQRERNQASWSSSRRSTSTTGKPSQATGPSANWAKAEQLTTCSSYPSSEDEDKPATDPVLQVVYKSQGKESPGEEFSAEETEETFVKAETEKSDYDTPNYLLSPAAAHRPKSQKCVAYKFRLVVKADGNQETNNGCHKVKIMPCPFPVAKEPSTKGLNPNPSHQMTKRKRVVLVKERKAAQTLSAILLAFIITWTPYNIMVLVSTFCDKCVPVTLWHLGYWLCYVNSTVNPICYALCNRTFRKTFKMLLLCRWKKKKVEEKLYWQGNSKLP
How it was run: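 Agonist-mode calcium flux: 11-point dose responses, triplicate wells, fluorescence followed for 3 minutes. Cells are M3_CHO or M5_CHO lines (human receptors) with Ca++ indicator in probenecid-containing HEPES/HBSS buffer. Percent activity is referenced to carbachol EC100, and curves come from four-parameter nonlinear regression.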

Structure (SMILES) | Emax [1] [%] | Emax [2] [%] | EC50 [2] [nM] | EC50 [1] [nM]
O=C(C1COC1)N1CC2(CC[C@@H](N3CCC(c4ccccc4OC4CCCC4)CC3)C2)C1 [Example 7G, (R)-(6-(4-(2-(cyclopentyloxy)phenyl)piperidin-1-yl)-2-azaspiro[3.4]octan-2-yl)(oxetan-3-yl)methanone] | 0 | 0 | > 25000 | 
O=C(C1COC1)N1CC2(CC[C@@H](N3CCC(c4ccccc4OCCC(F)(F)F)CC3)C2)C1 [Example 7GG, (R)-oxetan-3-yl(6-(4-(2-(3,3,3-trifluoropropoxy)phenyl)piperidin-1-yl)-2-azaspiro[3.4]octan-2-yl)methanone] | 9 | 14 | 974 | 724
O=C(C1COC1)N1CC2(CC[C@@H](N3CCC(c4ccccc4OC4CCC4)CC3)C2)C1 [Example 7H, (R)-(6-(4-(2-cyclobutoxyphenyl)piperidin-1-yl)-2-azaspiro[3.4]octan-2-yl)(oxetan-3-yl)methanone] | 0 | 0 | > 25000 | 
COC(C)(C)COc1ccccc1C1CCN([C@@H]2CCC3(C2)CN(C(=O)C2COC2)C3)CC1 [Example 7HH, (R)-(6-(4-(2-(2-methoxy-2-methylpropoxy)phenyl)piperidin-1-yl)-2-azaspiro[3.4]octan-2-yl)(oxetan-3-yl)methanone] | 16 | 0 | > 25000 | 154
O=C(C1COC1)N1CC2(CC[C@@H](N3CCC(c4ccccc4OCC4CC4)CC3)C2)C1 [Example 7I, (R)-(6-(4-(2-(cyclopropylmethoxy)phenyl)piperidin-1-yl)-2-azaspiro[3.4]octan-2-yl)(oxetan-3-yl)methanone] | 16 | 0 | > 25000 | 123
O=C(C1COC1)N1CC2(CC[C@@H](N3CCC(c4ccccc4OCC4(C(F)(F)F)CC4)CC3)C2)C1 [Example 7II, (R)-oxetan-3-yl(6-(4-(2-((1-(trifluoromethyl)cyclopropyl)methoxy)phenyl)piperidin-1-yl)-2-azaspiro[3.4]octan-2-yl)methanone] | 12 | 13 | 1640 | 6880
CCOc1ccccc1C1CCN([C@@H]2CCC3(C2)CN(C(=O)C2COC2)C3)CC1 [Example 7J, (R)-(6-(4-(2-ethoxyphenyl)piperidin-1-yl)-2-azaspiro[3.4]octan-2-yl)(oxetan-3-yl)methanone] | 33 | 0 |  | 207
O=C(C1COC1)N1CC2(CC[C@@H](N3CCC(c4ccccc4OCC(F)F)CC3)C2)C1 [Example 7JJ, (R)-(6-(4-(2-(2,2-difluoroethoxy)phenyl)piperidin-1-yl)-2-azaspiro[3.4]octan-2-yl)(oxetan-3-yl)methanone] | 22 | 9 | 935 | 98
CC(C)Oc1ccccc1C1CCN([C@@H]2CCC3(C2)CN(C(=O)C2COC2)C3)CC1 [Example 7K, (R)-(6-(4-(2-isopropoxyphenyl)piperidin-1-yl)-2-azaspiro[3.4]octan-2-yl)(oxetan-3-yl)methanone] | 23 | 0 | > 25000 | 590
O=C(C1COC1)N1CC2(CC[C@@H](N3CCC(c4ccccc4OCCC4COC4)CC3)C2)C1 [Example 7KK, (R)-oxetan-3-yl(6-(4-(2-(2-(oxetan-3-yl)ethoxy)phenyl)piperidin-1-yl)-2-azaspiro[3.4]octan-2-yl)methanone] | 21 | 0 | > 25000 | 91
CC(C)(O)COc1ccccc1C1CCN([C@@H]2CCC3(C2)CN(C(=O)C2COC2)C3)CC1 [Example 7L, (R)-(6-(4-(2-(2-hydroxy-2-methylpropoxy)phenyl)piperidin-1-yl)-2-azaspiro[3.4]octan-2-yl)(oxetan-3-yl)methanone] | 0 | 0 | > 25000 | 
O=C(C1COC1)N1CC2(CC[C@@H](N3CCC(c4ccccc4OC(F)(F)F)CC3)C2)C1 [Example 12A, (R)-oxetan-3-yl(6-(4-(2-(trifluoromethoxy)phenyl)piperidin-1-yl)-2-azaspiro[3.4]octan-2-yl)methanone] | 18 | 0 | > 25000 | 110000
